From PMC8175350, “Drug repurposing screens identify chemical entities for the development of COVID-19 interventions” (Nature Communications, 2021)
Values joined by “and” are separate entries in the source; they are usually repeats but may differ in a detail not shown here. Identical values can stand only once. Like-named read-outs stand apart in the source and are kept apart here.

Legend:
[1] = system: COVID-19; conditions: ref [9]; cited from earlier work
[2] = system: SARS-CoV-2; assay: microbe, parasite or virus in culture; format: cell-based; conditions: for %infected: Calu-3, replicate wells n=1-3; for EC50: read-out: Calu-3 SARS-CoV-2 EC50
[3] = in vitro; conditions: human
[4] = system: Calu-3 cells; assay: Uninfected Calu-3 48 h Cell-Titer Glo cytotoxicity counter screen
[5] = system: SARS-CoV-2; assay: microbe, parasite or virus in culture; format: cell-based; conditions: for %infected: replicate wells n=1-3
[6] = system: HeLa-ACE2 cells; assay: cells; conditions: Homo sapiens
[7] = system: HeLa-ACE2 cells; assay: Total cell count in the HeLa-ACE2 TOA assay; format: cell-based; conditions: Homo sapiens
Excerpt: Supplement 41467_2021_23328_MOESM3_ESM.xlsx, sheet "Table S1" | column: HeLa-ACE2 TOA cell count

[8] = system: Calu-3 cells; assay: cells; conditions: Homo sapiens
[9] = system: SARS-CoV-2; format: cell-based
[10] = system: SARS-CoV-2; assay: microbe, parasite or virus in culture; format: cell-based; conditions: for SARS-CoV-2 % infected cells: 10 µM after 1 h infection; for TOA: HeLa-ACE2, replicate wells n=1-3
[11] = system: COVID-19; conditions: shortened from 15; ref [7]; cited from earlier work
[12] = Uninfected HeLa-ACE2 24 h live/dead cytotoxicity counter screen; format: cell-based, human; conditions: human, uninfected HeLa-ACE2 cells
[13] = system: HeLa-ACE2 cells; assay: as above; format: cell-based, human; conditions: for cytotox: HeLa-ACE2, replicate wells n=1-3
[14] = curve plateau at infinite concentration

Compound: CCC(CC)COC(=O)[C@H](C)N[P@](=O)(OC[C@H]1O[C@@](C#N)(c2ccc3c(N)ncnn23)[C@H](O)[C@@H]1O)Oc1ccccc1 [Remdesivir]
- mortality of hospitalized COVID-19 patients [1]: failed to reduce mortality
- %infected ([2]; concentration log[M] -5): -100% and -99.897% and -100.088% and -98.7564% and -99.5799% and -100.046% and -100.098% and -100.338% and -99.9472%
- %infected ([2]; concentration log[M] -5.47712): -99.1601% and -98.4923% and -99.234% and -99.2295% and -99.4568% and -99.7507% and -99.3361% and -99.5394% and -98.7541%
- %infected ([2]; concentration log[M] -5.95424): -89.5337% and -93.208% and -92.5628% and -91.8668% and -95.3312% and -93.4282% and -90.0849% and -90.1886% and -82.0673%
- %infected ([2]; concentration log[M] -6.43136): -39.9603% and -66.0539% and -61.9632% and -57.8703% and -42.505% and -37.1362% and -41.0562% and -18.9015% and -48.5538%
- %infected ([2]; concentration log[M] -6.90849): 15.313% and 14.726% and -3.639% and 30.6752% and -6.396% and 10.9651% and -1.713% and -1.879%
- %infected ([2]; concentration log[M] -7.38561): 1.995% and -3.779% and 16.4097% and -7.2105% and 10.833% and 28.7058% and 9.608% and 17.5254%
- %infected ([2]; concentration log[M] -7.86273): 12.1902% and -3.292% and 25.9949% and 14.3562% and 4.371% and -33.8895% and 13.327% and 8.365% and 21.3189%
- %infected ([2]; concentration log[M] -8.33985): -5.4528% and 0% and -9.776% and -9.382% and 5.183% and 10.3172% and 15.4186% and 28.7222%
- Emax ([2]; Severe acute respiratory syndrome coronavirus 2, Calu-3, 48 h, curve plateau at infinite concentration, read-out: Calu-3 CoV-2 Sinf Average): 102%
- EC50 ([2]; Severe acute respiratory syndrome coronavirus 2, Calu-3, reconfirmed hits): 0.606 µM
- EC50 ([2]; Severe acute respiratory syndrome coronavirus 2, Calu-3, value in brackets*: remdesivir control): 0.444 µM
- CC50 ([3]; Calu-3 Uninf. cells CC50 (µM), reconfirmed hits): > 30 µM
- CC50 ([3]; Calu-3 Uninf. cells CC50 (µM), value in brackets*: remdesivir control): > 30 µM
- CC50 ([3]; Calu-3 uninfected cytotoxicity CC50 GeoMean): > 29.9 µM
- CC50 ([3]; cytotoxicity CC50, uninfected Calu-3, geomean): > 30 µM
- cytotox ([4]; Calu-3, concentration log[M] -5, replicate wells n=1-3): 10.3923 and -8.975 and 0.952 and 18.306 and 7.959 and -3.54 and 10.6309 and -10.2579 and 5.131
- Calu-3 uninfected cytotoxicity Sinf Average [4, 14]: -95%
- increase in EC50 from MOI = 0.09 to MOI = 2.2 ([5]; HeLa-ACE2): 2.7 fold
- EC50 ([5]; HeLa-ACE2, individual values of 9 independent experiments, read-out: EC50 (µM), Fig 1c): 191 nM and 83 nM and 141 nM and 130 nM and 138 nM (2×)
- %infected ([5]; HeLa-ACE2, concentration log[M] -5.61909): -99.4999% and -95.8005% and -94.7545% and -97.535% and -100.056% and -100.005% and -100.014% and -99.12% and -100%
- %infected ([5]; HeLa-ACE2, concentration log[M] -6.09621): -99.2124% and -98.9733% and -96.3176% and -99.76% and -100.229% and -100.013%
- %infected ([5]; HeLa-ACE2, concentration log[M] -8.48182): 18.582% and -4.2719% and -2.02% and 15.6179% and -5.577% and 7.137% and 7.4% and 8.398% and -2.488%
- %infected ([5]; HeLa-ACE2, concentration log[M] -8.95894): 3.102% and 6.636% and 1.634% and -11.6076% and 6.069% and -5.672% and -8.653%
- Emax ([5]; Severe acute respiratory syndrome coronavirus 2, HeLa-ACE2, 24 h, curve plateau at infinite concentration, read-out: HeLa-ACE2 CoV-2 Sinf Average): 100%
- EC50 ([5]; Severe acute respiratory syndrome coronavirus 2, HeLa-ACE2, HeLa-ACE2, MOI 0.51, read-out: EC50): 0.126 µM
- EC50 ([5]; Severe acute respiratory syndrome coronavirus 2, HeLa-ACE2, HeLa-ACE2, MOI 1.1, read-out: EC50): 0.145 µM
- EC50 ([5]; Severe acute respiratory syndrome coronavirus 2, HeLa-ACE2, HeLa-ACE2, MOI 2.2, read-out: EC50): 0.223 µM
- EC50 ([5]; Severe acute respiratory syndrome coronavirus 2, HeLa-ACE2, reconfirmed hits, read-out: HeLa-ACE2 SARS-CoV-2 EC50): 0.127 µM
- EC50 ([5]; Severe acute respiratory syndrome coronavirus 2, HeLa-ACE2, value in brackets*: remdesivir control, read-out: HeLa-ACE2 SARS-CoV-2 EC50): 0.123 µM
- Emax ([6]; HeLa-ACE2, 24 h, read-out: HeLa-ACE2 cell count Sinf Average): 100%
- EC50 ([6]; HeLa-ACE2, read-out: HeLa-ACE2 cell count EC50 GeoMean): > 9.6 µM
- EC50 ([6]; HeLa-ACE2, read-out: cell count in infection assay EC50, HeLa-ACE2, geomean, ^↑ = increasing dose-response curve): > 1.2 µM
- Emax ([7]; HeLa-ACE2, 10 h, curve plateau at infinite concentration, read-out: HeLa-ACE2 TOA cell count Sinf Average): 100%
- EC50 ([7]; HeLa-ACE2, read-out: HeLa-ACE2 TOA cell count EC50 GeoMean): > 9.61 µM
- Emax ([8]; Calu-3, 48 h, read-out: Calu-3 cell count Sinf Average): 103%
- EC50 ([8]; Calu-3, read-out: Calu-3 cell count EC50 GeoMean): 0.7 µM
- EC50 ([8]; Calu-3, read-out: cell count EC50, Calu-3, geomean, ^↑ = increasing dose-response curve): 0.537 µM
- effect on viral replication in ALI-HBECs [9]: inhibited viral replication
- SARS-CoV-2 % infected cells ([10]; 4:00:00 post infection): 0.0558% and 0.1777% and 0.2107%
- SARS-CoV-2 % infected cells ([10]; 5:00:00): 0.7242% and 1.236% and 0.5657%
- SARS-CoV-2 % infected cells ([10]; 6:00:00): 1.289% and 0.8606%
- SARS-CoV-2 % infected cells ([10]; 7:00:00): 0.8435% and 0.9162%
- SARS-CoV-2 % infected cells ([10]; 8:00:00): 1.114% and 1.68%
- SARS-CoV-2 % infected cells ([10]; 10:00:00): 1.9707% and 2.635%
- SARS-CoV-2 % infected cells ([10]; 11:00:00): 2.255% and 2.403%
- SARS-CoV-2 % infected cells ([10]; 12:00:00): 4.554%
- SARS-CoV-2 % infected cells ([10]; 24:00:00): 1.211% and 0.9586%
- activity when treatment was initiated at 1 hpi ([10]; HeLa-ACE2, 10 µM): effectively blocked the infection
- TOA ([10]; concentration log[M] -5.61909): -92.6138 and -80.8583 and -88.199 and -76.7514 and -93.5448 and -83.4805 and -80.3661 and -74.8437 and -99.8898
- TOA ([10]; concentration log[M] -6.09621): -68.7737 and -49.7255 and -48.7992 and -40.2692 and -44.1304 and -40.198 and -47.0122 and -58.4412 and -51.4261
- TOA ([10]; concentration log[M] -6.57334): -20.3161 and -18.1481 and -10.1709 and -1.508 and -0.9303 and -16.8539 and -5.25 and -7.77
- TOA ([10]; concentration log[M] -7.05046): -7.493 and -17.8403 and -13.1433 and -19.1912 and -3.289 and -5.355 and 2.9336 and -2.419
- TOA ([10]; concentration log[M] -7.52758): -5.952 and 2.422 and 1.456 and -1.724 and -2.397 and 2.2617 and 7.029 and -1.667 and -1.15
- TOA ([10]; concentration log[M] -8.0047): 5.958 and 5.629 and 3.068 and -1.8321 and 3.442 and 6.226 and 7.961 and 4.025 and 11.376
- TOA ([10]; concentration log[M] -8.48182): 4.28 and 10.7449 and 12.4349 and -4.585 and 4.364 and -1.184 and 4.823 and 5.851 and -1.616
- TOA ([10]; concentration log[M] -8.95894): -2.286 and -0.1755 and 11.8345 and -1.884 and 3.08 and 1.621 and -5.04 and -0.06688 and -11.3351
- Emax ([10]; Severe acute respiratory syndrome coronavirus 2, HeLa-ACE2, 10 h, curve plateau at infinite concentration, read-out: HeLa-ACE2 TOA CoV-2 Sinf Average): 102%
- EC50 ([10]; Severe acute respiratory syndrome coronavirus 2, HeLa-ACE2, read-out: HeLa-ACE2 TOA CoV-2 EC50 GeoMean): 0.795 µM
- EC50 ([10]; Severe acute respiratory syndrome coronavirus 2, HeLa-ACE2, fixed 10 hpi, geomean, read-out: CoV-2 TOA EC50): 0.77 µM
- median time to recovery [11]: 11 days
- CC50 at 24 h ([12]; geomean, read-out: uninfected HeLa-ACE2 cytotoxicity CC50): > 9.67 µM
- CC50 at 24 h ([12]; reconfirmed hits, read-out: HeLa-ACE2 Uninf. cells CC50): 9.97 µM
- CC50 at 24 h ([12]; value in brackets*: remdesivir control, read-out: HeLa-ACE2 Uninf. cells CC50): 9.67 µM
- CC50 at 24 h ([12]; read-out: HeLa-ACE2 uninfected cytotoxicity CC50 GeoMean): 9.97 µM
- cytotox ([13]; concentration log[M] -5): -48.6076 and -58.6844 and -51.3625 and -48.213 and -50.9294 and -56.7143 and -47.8141 and -43.3369 and -36.9299
- cytotox ([13]; concentration log[M] -5.47712): -19.1561 and -17.8418 and -30.9661 and -14.3691 and -23.5688 and -36.4286 and -15.3846 and -28.169 and -29.0323
- cytotox ([13]; concentration log[M] -5.95424): 6.751 and 11.4789 and 9.414 and -2.699 and 2.9 and 4.429 and 8.301 and 5.85 and 4.672
- cytotox ([13]; concentration log[M] -6.43136): -5.57 and 5.718 and -0.9083 and 5.1787 and 2.305 and -8.143 and -9.851 and -10.8342 and 4.561
- cytotox ([13]; concentration log[M] -6.90849): 2.8692 and 11.5649 and -1.239 and 5.033 and 15.0929 and 0 and 8.342
- cytotox ([13]; concentration log[M] -7.38561): -3.882 and -2.966 and 0.578 and 12.6185 and 0.223 and 8.571 and 4.759 and -6.934 and 4.338
- cytotox ([13]; concentration log[M] -7.86273): 4.3038 and -8.727 and 10.4046 and -9.847 and -4.535 and -6.857 and 3.25 and -6.674
- cytotox ([13]; concentration log[M] -8.33985): 0.2532 and 0.129 and -1.817 and 2.115 and -17.6208 and -2.857 and -8.744 and 4.117 and 1.669
- HeLa-ACE2 uninfected cytotoxicity Sinf Average [13, 14]: -86%
